How the values were obtained:
[1] = TH17 Cytokine Inhibition ELISA: Human CD4+ T cells were differentiated to TH17 cells as described in the presence or absence of various concentrations of compounds in a final concentration of 0.1% DMSO in TexMACS medium. Supernatants were collected and stored at −20° C. until they were to be assayed for IL-17A, IL-17F, IL-17AF, IL-21 and/or IL-22 levels as determined by Ready-Set-Go ELISA kits (eBioscience) as per manufacturer's instructions. Endpoint absorbance was read at 450 nm and 570 nm according to manufacturer's instructions (eBioscience) using a microplate reader (Perkin Elmer). The percentage of cytokine inhibition was calculated with reference to DMSO treated cells and the IC50s were determined by GraphPad Prism software and presented in the table below.
[2] = biological target: T1, Nuclear receptor ROR-gamma (Homo sapiens, UniProt P51449); assay: RORgamma LBD Binding Assay: Compound binding to the human RORγ LBD was assessed using the Human RORγ Assay System (INDIGO Biosciences Inc.) as per manufacturer's instructions. Binding to the RORγ LBD was assessed using gradient concentrations of the indicated compounds in a final concentration of 0.5% DMSO, where IC50s were generated using Graphpad Prism.
T1 sequence (P51449 whole entry): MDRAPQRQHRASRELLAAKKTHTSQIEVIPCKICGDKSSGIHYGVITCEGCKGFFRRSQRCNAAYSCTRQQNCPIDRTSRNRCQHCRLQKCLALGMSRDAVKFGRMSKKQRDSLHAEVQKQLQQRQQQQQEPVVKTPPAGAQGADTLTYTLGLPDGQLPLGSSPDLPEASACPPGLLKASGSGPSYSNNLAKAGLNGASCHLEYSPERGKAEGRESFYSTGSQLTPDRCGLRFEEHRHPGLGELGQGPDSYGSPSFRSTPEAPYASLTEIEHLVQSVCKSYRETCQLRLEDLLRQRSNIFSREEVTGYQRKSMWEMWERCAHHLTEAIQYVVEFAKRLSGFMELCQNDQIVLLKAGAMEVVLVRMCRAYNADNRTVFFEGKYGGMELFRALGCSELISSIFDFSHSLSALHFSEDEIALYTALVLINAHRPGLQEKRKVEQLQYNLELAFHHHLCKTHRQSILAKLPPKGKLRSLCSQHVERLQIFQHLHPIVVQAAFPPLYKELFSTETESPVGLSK

Row | IC50 [1] [µM] | SMILES | IC50 [2] [µM]
1 | < 10 | OC(c1ccc(CBr)cc1)(C(F)(F)F)C(F)(F)F | –
2 | < 10 | CN(C)C(=O)c1ccc2c(ccc(=O)n2Cc2ccc(C(O)(C(F)(F)F)C(F)(F)F)cc2)c1 | –

Row | SMILES | IC50 [1] [µM] | IC50 [2] [µM]
3 | CN(C)C(=O)c1ccc2c(c1)CCC(=O)N2Cc1ccc(C(O)(C(F)(F)F)C(F)(F)F)cc1 | > 10 | < 10

From ChEMBL document CHEMBL5725498, “ROR modulators and their uses” (2017)
